# Assay results from patent publication US20240122930A1, “INTEGRIN INHIBITORS AND USES THEREOF IN COMBINATION WITH OTHER AGENTS” (Pliant Therapeutics, Inc., priority 2022, published 2024).
# Like-named read-outs stand apart in the source and are kept apart here.
# Tested on: participants with idiopathic pulmonary fibrosis (IPF)
# [1] = 40 mg (n = 22), 12 weeks, listed as Cmpd 5
# [2] = 80 mg (n = 23), 12 weeks, listed as Cmpd 5
# [3] = 160 mg (n = 22), 12 weeks, listed as Cmpd 5
# [4] = 320 mg (n = 22), treatment up to 40 weeks
# Excerpt: The groups were stratified for the use of nintedanib or pirfenidone. The groups were screened 28 days before the Day 1 of the study. At Day 1, baseline values were collected. During week 12, the subjects received the last dose, and the study was ended at week 14. Primary and secondary endpoints of the study included safety, tolerability, and PK. Exploratory endpoints included change in FVC over 12 weeks; High Resolution CT-based Quantitative Lung Fibrosis (QLF) imaging; patient-reported outcome (PRO): VAS-cough severity; and effect on selected biomarkers.
# The groups were stratified for the use of nintedanib or pirfenidone. The screening was done 28 days before Day 1 and the baseline was measured on Day 1. The last dose was on Week 12, and the end of study was on Week 14. The primary and secondary endpoints include safety, tolerability, and PK. Exploratory Endpoints include change in Forced Vital Capacity (FVC) over 12 weeks, High Resolution CT-based Quantitative Lung Fibrosis (QLF) imaging, and effect on selected biomarkers.
# The groups were stratified for the use of nintedanib or pirfenidone. The groups were screened 28 days before the Day 1 of the study. At Day 1, baseline values were collected. The study was continued up to Week 48. The treatment duration per protocol is at least 24 weeks and at most 48 weeks. For the study, the primary and secondary endpoints evaluated in the trial were safety, tolerability, and pharmacokinetics. The exploratory endpoints evaluated included the change in FVC over 12 and 24 weeks; high Resolution CT-based Quantitative Lung Fibrosis (QLF) imaging; patient-reported cough severity; and effect on selected biomarkers.
structure (smiles),measurement,setting,value
"COCCN(CCCCc1ccc2c(n1)NCCC2)CC[C@H](Nc1ncnc2ccccc12)C(=O)O [Compound 5, (S)-4-((2-methoxyethyl) (4-(5,6,7,8-tetrahydro-1,8-naphthyridin-2-yl)butyl)amino)-2-(quinazolin-4-ylamino) butanoic acid]","Any AEs, % of participants","40 mg (n = 22), 12 weeks",(72.7) %
same,"Any AEs, participants reporting","40 mg (n = 22), 12 weeks",16 n
same,Serious TEAE,"40 mg (n = 22), 12 weeks",1 n
same,Serious TEAE related to study drug,"40 mg (n = 22), 12 weeks",0 n
same,"Serious TEAE, % of participants","40 mg (n = 22), 12 weeks",(4.5) %
same,"TEAE Diarrhea (any causality), % of participants","40 mg (n = 22), 12 weeks",(9.1) %
same,"TEAE Diarrhea (any causality), participants reporting","40 mg (n = 22), 12 weeks",2 n
same,"TEAE Diarrhea related to study drug, % of participants","40 mg (n = 22), 12 weeks",(4.5) %
same,"TEAE Diarrhea related to study drug, participants reporting","40 mg (n = 22), 12 weeks",1 n
same,TEAE Leading to Death,"40 mg (n = 22), 12 weeks",0 n
same,TEAE Leading to Early Termination from Study,"40 mg (n = 22), 12 weeks",0 n
same,TEAE Leading to Interruption of Study Drug,"40 mg (n = 22), 12 weeks",0 n
same,TEAE Leading to Withdrawal of Study Drug,"40 mg (n = 22), 12 weeks",0 n
same,TEAE of CTCAE Grade 3 or Higher,"40 mg (n = 22), 12 weeks",2 n
same,TEAE of CTCAE Grade 3 or Higher related to study drug,"40 mg (n = 22), 12 weeks",0 n
same,"TEAE of CTCAE Grade 3 or Higher, % of participants","40 mg (n = 22), 12 weeks",(9.1) %
same,TEAE related to study drug,"40 mg (n = 22), 12 weeks",4 n
same,"TEAE related to study drug, % of participants","40 mg (n = 22), 12 weeks",(18.2) %
same,"TEAE, % of participants","40 mg (n = 22), 12 weeks",(72.7) %
same,"TEAE, participants reporting","40 mg (n = 22), 12 weeks",16 n
same,"Any AEs, % of participants",[1],72.7%
same,"Serious TEAE, % of participants",[1],4.5%
same,"TEAE Diarrhea (any causality), % of participants",[1],9.1%
same,"TEAE Diarrhea related to study drug, % of participants",[1],4.5%
same,"TEAE of CTCAE Grade 3 or Higher, % of participants",[1],9.1%
same,"TEAE related to study drug, % of participants",[1],18.2%
same,"TEAE, % of participants",[1],72.7%
same,"Any AEs, % of participants","80 mg (n = 23), 12 weeks",(65.2) %
same,"Any AEs, participants reporting","80 mg (n = 23), 12 weeks",15 n
same,Serious TEAE,"80 mg (n = 23), 12 weeks",0 n
same,Serious TEAE related to study drug,"80 mg (n = 23), 12 weeks",0 n
same,"TEAE Diarrhea (any causality), % of participants","80 mg (n = 23), 12 weeks",(21.7) %
same,"TEAE Diarrhea (any causality), participants reporting","80 mg (n = 23), 12 weeks",5 n
same,"TEAE Diarrhea related to study drug, % of participants","80 mg (n = 23), 12 weeks",(13.0) %
same,"TEAE Diarrhea related to study drug, participants reporting","80 mg (n = 23), 12 weeks",3 n
same,TEAE Leading to Death,"80 mg (n = 23), 12 weeks",0 n
same,TEAE Leading to Early Termination from Study,"80 mg (n = 23), 12 weeks",0 n
same,TEAE Leading to Interruption of Study Drug,"80 mg (n = 23), 12 weeks",0 n
same,TEAE Leading to Withdrawal of Study Drug,"80 mg (n = 23), 12 weeks",0 n
same,TEAE of CTCAE Grade 3 or Higher,"80 mg (n = 23), 12 weeks",0 n
same,TEAE of CTCAE Grade 3 or Higher related to study drug,"80 mg (n = 23), 12 weeks",0 n
same,TEAE related to study drug,"80 mg (n = 23), 12 weeks",7 n
same,"TEAE related to study drug, % of participants","80 mg (n = 23), 12 weeks",(30.4) %
same,"TEAE, % of participants","80 mg (n = 23), 12 weeks",(65.2) %
same,"TEAE, participants reporting","80 mg (n = 23), 12 weeks",15 n
same,"Any AEs, % of participants",[2],65.2%
same,"TEAE Diarrhea (any causality), % of participants",[2],21.7%
same,"TEAE Diarrhea related to study drug, % of participants",[2],13.0%
same,"TEAE related to study drug, % of participants",[2],30.4%
same,"TEAE, % of participants",[2],65.2%
same,"Any AEs, % of participants","160 mg (n = 22), 12 weeks",(68.1) %
same,"Any AEs, participants reporting","160 mg (n = 22), 12 weeks",15 n
same,Serious TEAE,"160 mg (n = 22), 12 weeks",2 n
same,Serious TEAE related to study drug,"160 mg (n = 22), 12 weeks",0 n
same,"Serious TEAE, % of participants","160 mg (n = 22), 12 weeks",(9.1) %
same,"TEAE Diarrhea (any causality), % of participants","160 mg (n = 22), 12 weeks",(22.7) %
same,"TEAE Diarrhea (any causality), participants reporting","160 mg (n = 22), 12 weeks",5 n
same,"TEAE Diarrhea related to study drug, % of participants","160 mg (n = 22), 12 weeks",(18.2) %
same,"TEAE Diarrhea related to study drug, participants reporting","160 mg (n = 22), 12 weeks",4 n
same,TEAE Leading to Death,"160 mg (n = 22), 12 weeks",0 n
same,TEAE Leading to Early Termination from Study,"160 mg (n = 22), 12 weeks",0 n
same,TEAE Leading to Interruption of Study Drug,"160 mg (n = 22), 12 weeks",1 n
same,"TEAE Leading to Interruption of Study Drug, % of participants","160 mg (n = 22), 12 weeks",(4.5) %
same,TEAE Leading to Withdrawal of Study Drug,"160 mg (n = 22), 12 weeks",0 n
same,TEAE of CTCAE Grade 3 or Higher,"160 mg (n = 22), 12 weeks",2 n
same,TEAE of CTCAE Grade 3 or Higher related to study drug,"160 mg (n = 22), 12 weeks",1 n
same,"TEAE of CTCAE Grade 3 or Higher related to study drug, % of participants","160 mg (n = 22), 12 weeks",(4.5) %
same,"TEAE of CTCAE Grade 3 or Higher, % of participants","160 mg (n = 22), 12 weeks",(9.1) %
same,TEAE related to study drug,"160 mg (n = 22), 12 weeks",4 n
same,"TEAE related to study drug, % of participants","160 mg (n = 22), 12 weeks",(18.2) %
same,"TEAE, % of participants","160 mg (n = 22), 12 weeks",(63.6) %
same,"TEAE, participants reporting","160 mg (n = 22), 12 weeks",14 n
same,"Any AEs, % of participants",[3],68.2%
same,"Serious TEAE, % of participants",[3],9.1%
same,"TEAE Diarrhea (any causality), % of participants",[3],22.7%
same,"TEAE Diarrhea related to study drug, % of participants",[3],18.2%
same,"TEAE Leading to Interruption of Study Drug, % of participants",[3],4.5%
same,"TEAE of CTCAE Grade 3 or Higher related to study drug, % of participants",[3],4.5%
same,"TEAE of CTCAE Grade 3 or Higher, % of participants",[3],9.1%
same,"TEAE related to study drug, % of participants",[3],18.2%
same,"TEAE, % of participants",[3],63.6%
same,"Any AEs, % of participants","320 mg (n = 21), 12 weeks",85.7%
same,"Any AEs, participants reporting","320 mg (n = 21), 12 weeks",18 n
same,Serious TEAE,"320 mg (n = 21), 12 weeks",1 n
same,Serious TEAE related to study drug,"320 mg (n = 21), 12 weeks",0 n
same,"Serious TEAE, % of participants","320 mg (n = 21), 12 weeks",4.8%
same,"TEAE Diarrhea (any causality), % of participants","320 mg (n = 21), 12 weeks",14.3%
same,"TEAE Diarrhea (any causality), participants reporting","320 mg (n = 21), 12 weeks",3 n
same,"TEAE Diarrhea related to study drug, % of participants","320 mg (n = 21), 12 weeks",9.5%
same,"TEAE Diarrhea related to study drug, participants reporting","320 mg (n = 21), 12 weeks",2 n
same,TEAE Leading to Death,"320 mg (n = 21), 12 weeks",1 n
same,"TEAE Leading to Death, % of participants","320 mg (n = 21), 12 weeks",4.8%
same,TEAE Leading to Early Termination from Study,"320 mg (n = 21), 12 weeks",3 n
same,"TEAE Leading to Early Termination from Study, % of participants","320 mg (n = 21), 12 weeks",14.3%
same,TEAE Leading to Interruption of Study Drug,"320 mg (n = 21), 12 weeks",1 n
same,"TEAE Leading to Interruption of Study Drug, % of participants","320 mg (n = 21), 12 weeks",4.8%
same,TEAE Leading to Withdrawal of Study Drug,"320 mg (n = 21), 12 weeks",3 n
same,"TEAE Leading to Withdrawal of Study Drug, % of participants","320 mg (n = 21), 12 weeks",14.3%
same,TEAE of CTCAE Grade 3 or Higher,"320 mg (n = 21), 12 weeks",2 n
same,TEAE of CTCAE Grade 3 or Higher related to study drug,"320 mg (n = 21), 12 weeks",0 n
same,"TEAE of CTCAE Grade 3 or Higher, % of participants","320 mg (n = 21), 12 weeks",9.5%
same,TEAE related to study drug,"320 mg (n = 21), 12 weeks",4 n
same,"TEAE related to study drug, % of participants","320 mg (n = 21), 12 weeks",19.0%
same,"TEAE, % of participants","320 mg (n = 21), 12 weeks",81.0%
same,"TEAE, participants reporting","320 mg (n = 21), 12 weeks",17 n
same,Serious TEAE,[4],2 n
same,Serious TEAE related to study drug,[4],0 n
same,"Serious TEAE, % of participants",[4],(9.1) %
same,TEAE Cough related to study drug,[4],0 n
same,"TEAE Cough, % of participants",[4],(13.6) %
same,"TEAE Cough, participants reporting",[4],3 n
same,TEAE Diarrhea related to study drug,[4],4 n
same,"TEAE Diarrhea related to study drug, % of participants",[4],(18.2) %
same,"TEAE Diarrhea, % of participants",[4],(31.8) %
same,"TEAE Diarrhea, participants reporting",[4],7 n
same,TEAE Dyspnoea related to study drug,[4],0 n
same,"TEAE Dyspnoea, % of participants",[4],(22.7) %
